From ChEMBL document CHEMBL1201862, “PubChem BioAssay data set” (2004)
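A five-concentration, 48-hour dose response in 96-well plates underlies each endpoint, interpolated linearly between surrounding concentrations. GI50: concentration for 50% inhibition of growth.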 Activity calls are given as the source filed them. Cut-off read from the data, not from the text of the source: active = GI50 up to about 1.1 µM and inactive = higher.

Legend:
Assay in all cases: growth of human tumour cells (NCI), 48 h
786-0 = system: 786-0
A549 = system: A549
CAKI-1 = system: CAKI-1
CCRF-CEM = system: CCRF-CEM
HCC 2998 = system: HCC 2998
HT-29 = system: HT-29
K562 = system: K562
LOX IMVI = system: LOX IMVI
MOLT-4 = system: MOLT-4
Malme-3M = system: Malme-3M
NCI-H460 = system: NCI-H460
OVCAR-5 = system: OVCAR-5
OVCAR-8 = system: OVCAR-8
SN12C = system: SN12C
TK-10 = system: TK-10
UO-31 = system: UO-31
HCT-116 = system: HCT-116

Measured: GI50

Nc1c(C(=O)Nc2ccccc2)[n+]([O-])c2ccccc2[n+]1[O-]
inactive: 786-0 13.6 µM | A549 25.1 µM | CAKI-1 5.6 µM | CCRF-CEM 19.1 µM | HCC 2998 17.6 µM | HT-29 16.6 µM | K562 17.1 µM | LOX IMVI 12.3 µM | MOLT-4 18.7 µM | Malme-3M > 10 µM | NCI-H460 14.9 µM | OVCAR-5 22.5 µM | OVCAR-8 36.8 µM | SN12C 14.8 µM | TK-10 24.7 µM | UO-31 21.2 µM

Cn1c2c(c3ccccc31)C1CCCCC1C1C(=O)NC(=O)C21 (stereo not drawn)
inactive: 786-0 65 µM | A549 43.3 µM | CCRF-CEM 36.6 µM | HCC 2998 52.2 µM | HT-29 33.1 µM | K562 40.6 µM | LOX IMVI 33.1 µM | MOLT-4 21.8 µM | Malme-3M 32.1 µM | NCI-H460 34.8 µM | OVCAR-5 > 100 µM | OVCAR-8 66.2 µM | SN12C 33.2 µM | TK-10 > 100 µM | UO-31 28.6 µM

O=C(/C=C/c1ccc(Cl)c(Cl)c1)c1ccc(F)cc1
inactive: 786-0 15.5 µM | A549 42.8 µM | CAKI-1 18.5 µM | CCRF-CEM 4.42 µM | HCC 2998 16.6 µM | HCT-116 7.67 µM | HT-29 13.3 µM | K562 4.33 µM | MOLT-4 15.8 µM | Malme-3M 34.3 µM | NCI-H460 23.6 µM | OVCAR-5 18.3 µM | OVCAR-8 16.7 µM | SN12C 22.5 µM | TK-10 25.4 µM | UO-31 > 100 µM

Clc1ccc(CCN2CCOCC2)c(Cl)c1
inactive: 786-0 > 100 µM | A549 > 100 µM | CAKI-1 > 100 µM | CCRF-CEM > 100 µM | HCC 2998 > 100 µM | HCT-116 > 100 µM | HT-29 > 100 µM | K562 > 100 µM | MOLT-4 > 100 µM | Malme-3M > 100 µM | NCI-H460 > 100 µM | OVCAR-5 > 100 µM | OVCAR-8 > 100 µM | SN12C > 100 µM | UO-31 > 100 µM

CC1=C(C(=O)CC(=O)C(=O)Nc2ccccc2)Sc2ccccc2N1
inactive: 786-0 > 100 µM | A549 > 100 µM | CCRF-CEM > 100 µM | HCT-116 > 100 µM | HT-29 > 100 µM | K562 > 100 µM | LOX IMVI > 100 µM | MOLT-4 > 100 µM | Malme-3M > 100 µM | NCI-H460 > 100 µM | OVCAR-5 > 100 µM | OVCAR-8 > 100 µM | SN12C > 100 µM | UO-31 > 100 µM

CCOc1ccc(NC(=O)C2=C(C)NC(C)=C(C(=O)Nc3ccc(OCC)cc3)C2c2ccc(O)c(OC)c2)cc1
inactive: 786-0 48.9 µM | A549 > 100 µM | CAKI-1 > 100 µM | CCRF-CEM 46.9 µM | HCC 2998 2.35 µM | HT-29 > 100 µM | K562 40.8 µM | LOX IMVI > 100 µM | MOLT-4 28.1 µM | Malme-3M 64.1 µM | NCI-H460 80.4 µM | OVCAR-5 > 100 µM | OVCAR-8 87.3 µM | SN12C 86.3 µM | TK-10 > 100 µM | UO-31 52.4 µM

CCOC(=O)COS(=O)(=O)C(F)(F)F
inactive: 786-0 35.4 µM | A549 > 100 µM | CAKI-1 > 100 µM | CCRF-CEM > 100 µM | HCC 2998 > 100 µM | HCT-116 34.5 µM | HT-29 > 100 µM | K562 > 100 µM | LOX IMVI 18.8 µM | MOLT-4 > 100 µM | Malme-3M > 100 µM | NCI-H460 41.9 µM | OVCAR-5 > 100 µM | OVCAR-8 > 100 µM | SN12C > 100 µM | TK-10 > 100 µM | UO-31 > 100 µM

O=C1OCCC1(Cc1ccc(Cl)cc1)Cc1ccc(Cl)cc1
inactive: 786-0 64.6 µM | A549 > 100 µM | CAKI-1 > 100 µM | CCRF-CEM > 100 µM | HCT-116 > 100 µM | HT-29 > 100 µM | K562 > 100 µM | MOLT-4 > 100 µM | Malme-3M > 100 µM | NCI-H460 > 100 µM | OVCAR-5 > 100 µM | OVCAR-8 64.6 µM | SN12C > 100 µM | TK-10 46.8 µM | UO-31 54.7 µM

O=C(Cn1ccnc1[N+](=O)[O-])NCc1ccc(F)cc1
inactive: 786-0 > 100 µM | A549 > 100 µM | CAKI-1 > 100 µM | CCRF-CEM > 100 µM | HT-29 > 100 µM | K562 > 100 µM | LOX IMVI > 100 µM | MOLT-4 > 100 µM | Malme-3M > 100 µM | NCI-H460 > 100 µM | OVCAR-5 > 100 µM | OVCAR-8 > 100 µM | SN12C > 100 µM | TK-10 > 100 µM | UO-31 > 100 µM

Cc1ccc(NC(=O)CC/C(CC(=O)C(C)(C)C)=N/NC(=O)C[N+](C)(C)C)cc1C
inactive: 786-0 18.2 µM | A549 21.7 µM | CAKI-1 > 100 µM | CCRF-CEM > 100 µM | HCC 2998 > 100 µM | HCT-116 > 100 µM | HT-29 > 100 µM | K562 > 100 µM | LOX IMVI > 100 µM | MOLT-4 > 100 µM | Malme-3M > 100 µM | NCI-H460 > 100 µM | OVCAR-5 > 100 µM | OVCAR-8 > 100 µM | SN12C > 100 µM | TK-10 > 100 µM | UO-31 > 100 µM

C1CN2CCN3CCN4CCN1[PH]243
inactive: 786-0 > 100 µM | A549 > 100 µM | CCRF-CEM > 100 µM | HCC 2998 > 100 µM | HCT-116 > 100 µM | HT-29 > 100 µM | K562 > 100 µM | LOX IMVI > 100 µM | MOLT-4 > 100 µM | Malme-3M > 100 µM | NCI-H460 > 100 µM | OVCAR-5 > 100 µM | OVCAR-8 > 100 µM | SN12C > 100 µM | TK-10 > 100 µM | UO-31 > 100 µM

CN(C)CCCNC(=O)c1cccc2nc3ccccc3nc12
inactive: 786-0 51.1 µM | A549 12.2 µM | CAKI-1 > 36.1 µM | HCC 2998 14.8 µM | HCT-116 4.83 µM | HT-29 6.75 µM | K562 7.46 µM | LOX IMVI 6.52 µM | MOLT-4 9.77 µM | Malme-3M 4.42 µM | OVCAR-5 20.9 µM | OVCAR-8 12.6 µM | SN12C 23.2 µM | TK-10 27.7 µM | UO-31 24.5 µM

CC(=O)OC1C2CCC1C1C2C2(Cl)C(Cl)=C(Cl)C1(Cl)C2(Cl)Cl (stereo not drawn)
inactive: 786-0 14.1 µM | A549 10.5 µM | CAKI-1 13.8 µM | HCT-116 11.2 µM | HT-29 12.3 µM | LOX IMVI 15.2 µM | MOLT-4 11 µM | Malme-3M 12.6 µM | NCI-H460 14.3 µM | OVCAR-5 11.1 µM | OVCAR-8 15.4 µM | SN12C 15.1 µM | TK-10 15.3 µM | UO-31 12.5 µM

COCOCCC#CCO
inactive: 786-0 > 100 µM | A549 > 100 µM | CCRF-CEM > 100 µM | HCC 2998 > 100 µM | HCT-116 88.9 µM | HT-29 > 100 µM | K562 > 100 µM | LOX IMVI > 100 µM | MOLT-4 > 100 µM | Malme-3M > 100 µM | NCI-H460 > 100 µM | OVCAR-5 > 100 µM | OVCAR-8 > 100 µM | SN12C > 100 µM | TK-10 > 100 µM | UO-31 > 100 µM

CCOP(=O)(OCC)C1CCCCOC1=O (stereo not drawn)
inactive: 786-0 > 100 µM | A549 > 100 µM | CAKI-1 > 100 µM | CCRF-CEM 76.7 µM | HCC 2998 > 100 µM | HCT-116 > 100 µM | HT-29 > 100 µM | K562 44 µM | LOX IMVI 19.9 µM | MOLT-4 33 µM | Malme-3M > 100 µM | NCI-H460 51.2 µM | OVCAR-8 > 100 µM | SN12C 95.9 µM | TK-10 > 100 µM | UO-31 > 100 µM

C=CC(=O)Nc1ccccc1CC(c1c[nH]c2ccccc12)c1c[nH]c2ccccc12
inactive: 786-0 18.8 µM | A549 23.4 µM | CAKI-1 18.2 µM | CCRF-CEM 19.9 µM | HCC 2998 18.7 µM | HT-29 18.3 µM | K562 20.7 µM | LOX IMVI 18.5 µM | MOLT-4 19.5 µM | Malme-3M 18 µM | OVCAR-8 16.4 µM | SN12C 16.3 µM | TK-10 26.7 µM | UO-31 15.9 µM

CC1=NN(C(=O)Nc2ccc(Cl)cc2)C(=O)C2CCC(=O)N12 (stereo not drawn)
inactive: 786-0 88.7 µM | A549 49.3 µM | CAKI-1 60.3 µM | CCRF-CEM > 100 µM | HCC 2998 > 100 µM | HCT-116 > 100 µM | K562 3.19 µM | LOX IMVI 4.13 µM | MOLT-4 53 µM | NCI-H460 28.3 µM | OVCAR-8 > 100 µM | SN12C > 100 µM | TK-10 > 100 µM | UO-31 61.2 µM

COC(=O)C12C(=O)O[C@H](C)C1(O)C(C)C(=O)N2C (stereo partly drawn)
inactive: 786-0 > 100 µM | CAKI-1 > 100 µM | HCC 2998 > 100 µM | HCT-116 > 100 µM | HT-29 > 100 µM | K562 > 100 µM | MOLT-4 > 100 µM | Malme-3M > 100 µM | OVCAR-5 > 100 µM | OVCAR-8 > 100 µM | TK-10 > 100 µM | UO-31 > 100 µM
